Test results as given in patent publication US8133471B2, “CLK-peptide and SLK-peptide” (New York University, priority 2003, dated 2012).

Experiments:
[1] = system: Glioblastoma (GL261) cells; experiment: GL261 glioblastoma cell adhesion to collagen type-IV; assay type: cell-based, murine
Protocol: FIG. 21 Effects of CLK-Peptide on Glioblastoma Cell Adhesion to Denatured Collagen Type-IV.
To assess the functional significance of the HUI77/CLK cryptic epitope, cell adhesion assays using a glioblastoma cell line were performed. Microtiter plates were coated with denatured collagen type-IV (10 μg/ml). Glioblastoma (GL261) cells were resuspended in adhesion buffer in the presence or absence of CLK-peptide or a non-specific control (CTW) peptide (50 μg/ml) and the […] were incubated in the coated wells for 30 minutes. Non-attached cells were removed by washing, and attached cells quantified by staining with crystal violet.

[2] = system: denatured collagen type-IV; experiment: 99Tc-CLK-Peptide competitive binding to denatured collagen type-IV (gamma counter); conditions: collagen 10 μg/ml; 99Tc-CLK-peptide 10 μg/ml
Protocol: FIG. 18 Inhibition of 99Tc-CLK-Peptide binding by unlabeled HUI77.
FIG. 19 Inhibition of Binding of Labeled CLK-Peptide to Denatured Collagen Type-IV by mAb HUI77. Denatured collagen type-IV (10 μg/ml) was coated on microtiter wells and binding of 99Tc-labeled CLK-Peptide in the presence or absence of unlabeled CLK-peptide or mAb HUI77 was measured. As shown in the figure, 99Tc-CLK-peptide (10 μg/ml, 50 μl/well) specifically binds to denatured collagen type-IV (first bar from left). […] 99Tc-CLK-peptide was also allowed to bind to denatured collagen type-IV in the presence or absence of Mab HUI77 (fourth and fifth bars from left). […] These findings provide further evidence that the CLK-peptide binds to a similar if not identical epitope recognized by Mab HUI77.
^99Tc-CLK-Peptide was used in competitive binding studies to further characterize the CLK epitope. To evaluate the ability of HUI77 to compete with binding to denatured type-IV collagen, type-IV collagen was denatured at 60° C. for 15 minutes at a concentration of […] in PBS. […] The supernatant, washes and collagen-coated wells were counted in a gamma counter (1 minute counts in duplicate).
In addition, denatured collagen type-IV (10 μg/ml) was coated on microtiter wells and binding of ^99Tc-labeled CLK-Peptide in the presence or absence of either unlabeled CLK-peptide or mAb HUI77 was measured using a gamma counter. […]

[3] = system: Human melanoma (M21) cells; experiment: M21 cell adhesion, CLK-peptide combined with mAb HUIV26 (Example 10); assay type: cell-based; conditions: data not shown
Protocol: FIG. 10 Effect of mAb HUIV26 in Combination with CLK-Peptide on Adhesion of M21 Cells to Denatured Collagen Type IV. Microtiter wells were coated with denatured collagen type-IV. M21 cells were allowed to bind to the coated substrates in the presence of CLK-peptide, mAb HUIV26, or both.
The effects of CLK-peptide, mAb HUIV26, and the combination of both on tumor cell adhesion were examined in vitro. Non-tissue culture treated 48-well microtiter plates were coated overnight at 4° C. with either native or denatured collagen type-IV (5 μg/ml). The plates were then blocked with 1% BSA in PBS for 1 hour at 37° C. Human melanoma (M21) cells at 10^5 cells/well in adhesion buffer were allowed to attach to the coated wells in the presence of either CLK-peptide (100 μg/ml), or mAb HUIV26 (100 μg/ml), or both together (CLK-peptide 25 μg/ml, mAb HUIV26 100 μg/ml). The cells were washed 2× with PBS, stained with crystal violet and destained with 10% acetic acid. Cell adhesion was quantified by measuring the O.D. of eluted dye at 600 nm. Data bars represent the mean O.D.±standard deviation from triplicate wells.

P27KIP1 = P27KIP1 expression by Western blot in tumor cells on denatured collagen; assay type: cell-based, murine; conditions: 24 hours
Protocol: FIG. 11 Inhibition of Cellular Interactions by CLK-Peptide Enhances Expression of P27KIP1. […] A. Treatment of B16F10 melanoma cells. B. Treatment of GL261 glioblastoma cells.
To determine whether the effect on inhibition of tumor proliferation and invasion in vivo differs in malignant tumors and normal tissue, the effect of CLK-peptide on gene expression was analyzed. Genes that regulate cell cycle control, including Cyclin Dependent Kinase (CDK) inhibitors known to regulate cellular proliferation, were studied. Tumor cells (B16F10 melanoma and GL261 glioblastoma) were resuspended in adhesion buffer in the presence or absence of CLK-peptide or control. Cells were added to culture plates coated with denatured collagen and allowed to incubate for 24 hours. Total cell lysates were prepared and the relative levels of the CDK inhibitor P27^KIP1 was examined by Western Blot analysis.

[4] = system: denatured collagen type-IV; experiment: Competition ELISA, mAb HUIV26 binding to denatured collagen type-IV with or without CLK-peptide; conditions: HUIV26 1 μg/ml; CLK-peptide 100 μg/ml; 2 hours 37° C.
Protocol: FIG. 14 Inhibition of Binding of Labeled CLK-Peptide to Denatured Collagen Type-IV by mAbs HUI77. To examine the binding specificity of the synthetic CLK-Peptide, the peptide was labeled and solid phase ELISAs were performed. Denatured collagen type-IV (10 μg/ml) was coated on microtiter wells and binding of either HRP-labeled CLK-Peptide or mAbs (mAbs HUI77 or HUIV26) was measured by ELISA at a wavelength of 490 nm. […] B. MAb HUIV26 was allowed to bind the denatured collagen in the presence or absence of CLK-Peptide.
Microtiter wells were coated with denatured collagen type-IV (1 μg/ml) overnight at 4° C., and the plates blocked with 1% BSA for 1 hour at 37° C. HUIV26 was added at 1 μg/ml and allowed to bind the denatured collagen in the presence or absence of 100 μg/ml CLK-peptide for 2 hours at 37° C. Labeled goat-anti-mouse antibody was added at 1:3000 and incubation was allowed for 1 hour at 37° C. Color solution, then a stopping solution of 4N sulfuric acid, were added and binding was quantified by measuring the O.D. at 490 nm. […] Similar results were obtained over a wide range of peptide and antibody concentrations (1 to 100 μg/ml) (data not shown).

Question: With “H-CLKQNGGNFSLG-OH [CLK-peptide, NH2-C-L-K-Q-N-G-G-N-F-S-L-G-COOH]” as the substance, how does the “inhibition of glioblastoma cell adhesion to denatured collagen type-IV” value ([1]; 50 μg/ml, 30 minutes) read?
Answer: The value was 90%.

Question: What about the “effect on glioblastoma cell adhesion to native intact collagen type-IV” value ([1]; data not shown) of the same substance?
Answer: Its value is “no effect”.

Question: And the “inhibition of 99Tc-CLK-peptide binding to denatured collagen type-IV” value [2]?
Answer: Its value is “dose-dependent inhibition”.

Question: And the “effect on M21 cell adhesion to native collagen type-IV” value [3]?
Answer: The value was “neither had any effect”.

Question: What about the P27KIP1 level (P27KIP1; B16F10 melanoma cells on denatured collagen) of the same substance?
Answer: Its P27KIP1 level is “dramatic upregulation”.

Question: And the P27KIP1 level (P27KIP1; GL261 glioblastoma cells on denatured collagen)?
Answer: Its P27KIP1 level is “dramatic upregulation”.

Question: And the “blocking of mAb HUIV26 binding to denatured collagen type-IV” value [4]?
Answer: Its value is “did not block”.
